# Experimental data taken from patent US20240010998A1, “FLAVONE 4'-O-METHYLTRANSFERASE GENE AND USE FOR SAME” (SUNTORY HOLDINGS LIMITED, priority 2020, published 2024).
# How the values were obtained:
# [1] = Simulation of flavone C-glycoside copigment effect with anthocyanin (malvin): absorption spectrum; assay type: physicochemical; conditions: for Absorption maximum of malvin solution upon addition of flavone C-glycoside (λmax): flavone C-glycoside added at 10-equivalent molar concentration to 0.5 mM malvin
# Method: An anthocyanin (malvin) and flavone C-glycoside were prepared to simulate the copigment effect of the flavone C-glycoside on malvin. The malvin (malvidin 3,5-diglucoside) and flavone C-glycosides (isovitexin (apigenin 6-C-glucoside), isoorientin (luteolin 6-C-glucoside) and swertisin (genkwanin 6-C-glucoside) used in the experiments were purchased from Nacalai Tesque, Inc. Embigenin (7,4′-dimethoxyisovitexin) was prepared by artificial organic synthesis from isovitexin. Each flavone C-glycoside (isovitexin, isoorientin, swertisin or embigenin) was added to the malvin at 10-equivalent molar concentration in a buffering solution at pH 5.0, and the absorption spectrum was measured. The malvin concentration was 0.5 mM.
# DN144 (IjFn-4′OMT) = test: Enzyme activity measurement with crude protein solution extract from E. coli expressing DN144; assay type: biochemical, fringed iris (Iris japonica); conditions: flavone substrate; for Produced compound: SAM, 30 minutes at 30° C., HPLC detection at 330 nm
# Method: With DN144 as a candidate protein having activity of transferring a methyl group to the 4′-position hydroxyl group of flavone C-glycoside, and using pET15b (Novagen), an E. coli expression vector pSPB7942 containing the full-length of DN144 was constructed according to the manufacturer's recommended protocol.
# Vector pSPB7942 was introduced into E. coli BL21(DE3) (New England Biolabs Japan Inc) by the manufacturer's recommended protocol, to obtain E. coli transformants. The E. coli were cultured using an Overnight Express Autoinduction System 1 (Novagen), according to the manufacturer's recommended protocol. The E. coli transformants were cultured at 37° C. (approximately 4 hours) with 2 mL of prepared culture solution, to an OD600 value of 0.5. The E. coli solution was added as a preculturing solution to 50 mL of culture solution, and main culturing was carried out for two nights at 16° C. The E. coli solution cultured for two nights was centrifuged (3,000 rpm, 4° C., 15 minutes), and the collected cells were suspended in sonic buffer (composition: 40 mM KPB (pH7.5), 1 mM dithiothreitol. 50 μM amidinophenylmethanesulfonyl fluoride hydrochloride, 500 μM ethylenediaminetetraacetic acid. 2 mM MgCl2, 1 μM S-adenosylmethionine (SAM)). A 5 mL portion of sonic buffer was added for each 1 g of E. coli. The suspended E. coli cells were crushed by ultrasonic treatment and then centrifuged (15,000 rpm, 4° C., 10 minutes), and the supernatant was recovered. The supernatant was used as a crude protein solution extract from E. coli expressing DN144. A TOMY MX-307 (rotor: AR015-24) was used for centrifugal separation (Tomy Seiko Co., Ltd.).
# The substrates used for activity measurement were apigenin, apigenin 7-glucoside, isovitexin 2″-rhamnoside, saponarin (isovitexin 4′-glucoside), swertisin, luteolin, luteolin 7-glucoside, isoorientin, swertiajapanin (isoorientin 7-methyl ether), delphinidin 3-glucoside, delphinidin 3,5-diglucoside and malvidin 3,5-diglucoside. A mixture of 8 μL of each 1 mM substrate (50% acetonitrile aqueous solution containing 0.1% TFA), 20 μL of 10 mM SAM, 10 μL of 1 M KPB (pH 7.5) and 20 μL of 10 mM MgCl2 adjusted to 58 μL was kept at 30° C. for 10 minutes, and then 42 μL of crude protein solution extract from DN144-expressing E. coli was added for enzyme reaction (30 minutes at 30° C.). Next, 100 μL of stop buffer (aqueous 90% acetonitrile solution containing TFA) was added to stop the enzyme reaction, and the enzyme reaction solution was analyzed by high-performance liquid chromatography (LC-2030C by Shimadzu Corp.). Detection was at 330 nm using a Shimadzu PDA SPD-M20A as the detector. The column used as a Shim-Pack FC-ODS 150 mm*4.6 min (Shimadzu GLC). Elution was performed using solution A (0.1% TFA aqueous solution) and solution B (aqueous 90% acetonitrile solution containing 0.1% TFA). The elution was with a 20-minute linear concentration Gradient from a 9:1 mixture to a 8:2 mixture, a 15-minute linear concentration gradient from a 8:2. mixture to a 2:8 mixture and a 5-minute linear concentration gradient from a 2:8 mixture to a 0:10 mixture, followed by elution with a 0:10 mixture for 1 minute. The flow rate was 0.6 mL/min. As a control, the same experiment was carried out using a crude protein solution extract from E. coli in which pET15b vector without the insert had been introduced. As a result, compounds were detected in the enzyme reaction solutions obtained by reacting the 10 different flavones with the crude protein solution extract from the DN144-expressing E. coli. […] With reaction of the 3 different anthocyanins, no peaks were detected other than for the substrates in the enzyme reaction solution. When enzyme reaction was conducted using an anthocyanin substrate, the enzyme reaction conditions were 30° C., 15 minutes, and an aqueous 90% acetonitrile solution containing 0.1% TFA and 0.24 N hydrochloric acid was used as the stop buffer. […]
Compound,Absorption maximum of malvin solution upon addition of flavone C-glycoside (λmax) ([1]; buffering solution pH 5.0) [nm],Methyltransferase activity of DN144 for the substrate (DN144 (IjFn-4′OMT)),further results
"COc1ccc(-c2cc(=O)c3c(O)c([C@@H]4O[C@H](CO)[C@@H](O)[C@H](O)[C@H]4O)c(OC)cc3o2)cc1 [Embigenin, 7,4′-dimethoxyisovitexin]",581,–,"Copigment effect with respect to malvin (absorbance increase, shift of absorption maximum toward long wavelength end) ([1]; 10-equivalent flavone C-glycoside, 0.5 mM malvin, pH 5.0): highest copigment effect"
"O=c1cc(-c2ccc(O)c(O)c2)oc2cc(O)c([C@@H]3O[C@H](CO)[C@@H](O)[C@H](O)[C@H]3O)c(O)c12 [Isoorientin, luteolin 6-C-glucoside]",575,strong methyltransferase activity,–
"O=c1cc(-c2ccc(O)cc2)oc2cc(O)c([C@@H]3O[C@H](CO)[C@@H](O)[C@H](O)[C@H]3O)c(O)c12 [Isovitexin, apigenin 6-C-glucoside]",578,–,Produced compound (DN144 (IjFn-4′OMT)): Isocytisoside; Produced compound (DN144 (IjFn-4′OMT); listed as isovitexin): conversion to isocytisoside was confirmed
"COc1cc(-c2[o+]c3cc(O)cc(O[C@@H]4O[C@H](CO)[C@@H](O)[C@H](O)[C@H]4O)c3cc2O[C@@H]2O[C@H](CO)[C@@H](O)[C@H](O)[C@H]2O)cc(OC)c1O [Malvin, malvidin 3,5-diglucoside]",–,–,"Absorption maximum of malvin solution (λmax) ([1]; malvin alone, 0.5 mM, buffering solution pH 5.0): 529 nm"
"COc1cc2oc(-c3ccc(O)c(O)c3)cc(=O)c2c(O)c1[C@@H]1O[C@H](CO)[C@@H](O)[C@H](O)[C@H]1O [Swertiajaponin, luteolin 7-methyl-6-C-glucoside]",–,strong methyltransferase activity,–
"COc1cc2oc(-c3ccc(O)cc3)cc(=O)c2c(O)c1[C@@H]1O[C@H](CO)[C@@H](O)[C@H](O)[C@H]1O [Swertisin, genkwanin 6-C-glucoside]",579,–,Produced compound (DN144 (IjFn-4′OMT)): Embigenin; Produced compound (DN144 (IjFn-4′OMT); listed as swertisin): conversion to embigenin was confirmed
isovitexin 2″-rhamnoside,–,strong methyltransferase activity,–
